Assay results: article PMC8312697, “Mechanistic Investigations Support Liver Safety of Ubrogepant” (Toxicological Sciences, 2020)

Key:
MRP4 = biological target: T1, MRP4 (Homo sapiens, UniProt O15439); assay: MRP4 vesicular transport inhibition assay; assay type: biochemical; conditions: for inhibition of MRP4-mediated probe substrate transport: vesicular transport inhibition assay
T1 construct: Solvo Biotechnology (Szeged, Hungary), contract laboratory that ran the assay
T1 sequence (O15439 1-1325): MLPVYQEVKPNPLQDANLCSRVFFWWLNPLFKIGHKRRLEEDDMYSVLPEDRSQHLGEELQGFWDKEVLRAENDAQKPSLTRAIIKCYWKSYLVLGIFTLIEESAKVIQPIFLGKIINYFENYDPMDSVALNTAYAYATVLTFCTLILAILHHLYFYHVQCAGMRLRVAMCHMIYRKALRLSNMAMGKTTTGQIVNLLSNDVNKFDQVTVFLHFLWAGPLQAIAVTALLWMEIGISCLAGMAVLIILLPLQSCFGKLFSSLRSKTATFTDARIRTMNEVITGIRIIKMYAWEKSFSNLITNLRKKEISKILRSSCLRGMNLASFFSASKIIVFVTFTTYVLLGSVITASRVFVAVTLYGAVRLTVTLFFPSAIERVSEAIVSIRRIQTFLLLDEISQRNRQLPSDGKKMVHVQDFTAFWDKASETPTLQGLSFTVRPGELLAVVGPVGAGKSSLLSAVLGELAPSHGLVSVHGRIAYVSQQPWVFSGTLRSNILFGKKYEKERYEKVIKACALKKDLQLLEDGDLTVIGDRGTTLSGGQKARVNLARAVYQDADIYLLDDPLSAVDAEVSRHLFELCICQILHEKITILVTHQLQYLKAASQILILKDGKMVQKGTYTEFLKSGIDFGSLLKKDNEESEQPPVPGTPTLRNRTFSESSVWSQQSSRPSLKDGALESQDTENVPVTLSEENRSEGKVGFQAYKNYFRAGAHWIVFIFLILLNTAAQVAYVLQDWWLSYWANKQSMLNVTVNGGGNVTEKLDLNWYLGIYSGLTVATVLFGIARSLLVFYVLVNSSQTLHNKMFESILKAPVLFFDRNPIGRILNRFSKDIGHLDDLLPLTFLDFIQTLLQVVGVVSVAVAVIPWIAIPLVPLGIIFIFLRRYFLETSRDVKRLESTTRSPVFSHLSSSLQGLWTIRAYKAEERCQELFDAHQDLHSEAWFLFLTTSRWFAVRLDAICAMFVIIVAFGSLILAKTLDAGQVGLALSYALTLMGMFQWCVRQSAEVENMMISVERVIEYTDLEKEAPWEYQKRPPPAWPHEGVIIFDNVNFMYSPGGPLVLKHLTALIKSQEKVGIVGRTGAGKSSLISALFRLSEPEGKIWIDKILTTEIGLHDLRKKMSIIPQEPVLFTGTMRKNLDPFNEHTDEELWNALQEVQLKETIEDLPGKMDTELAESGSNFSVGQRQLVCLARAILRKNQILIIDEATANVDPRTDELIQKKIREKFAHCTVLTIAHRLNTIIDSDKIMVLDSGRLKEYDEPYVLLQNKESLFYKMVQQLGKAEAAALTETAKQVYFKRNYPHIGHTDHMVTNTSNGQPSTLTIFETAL
Experimental: To assess the functional impact of ubrogepant on the human ABC efflux transporters BSEP, MRP3, and MRP4, in vitro vesicular transport inhibition assays were conducted by Solvo Biotechnology (Szeged, Hungary). The ability of ubrogepant to inhibit the BSEP-mediated transport (and accumulation) of a probe substrate was tested at concentrations ranging from 0.04 – 30 μM, where the latter defined the upper limit of compound solubility in the BSEP assay buffer. For the MRP3 and MRP4 vesicle-based transporter assessments, ubrogepant concentrations of 0.1 to 70 μM were used. To assess the functional impact of ubrogepant on the human SLC (uptake) transporter NTCP, in vitro experiments were performed using HEK293 cells stably expressing NTCP. The ability of ubrogepant to inhibit NTCP-mediated uptake (and accumulation) of taurocholate was tested at concentrations ranging from 0.04 – 30 μM.
To assess the functional impact of MK-3207 on the human ABC efflux transporters BSEP, MRP3 and MRP4, in vitro vesicular transport inhibition assays were conducted by Solvo Biotechnology (Szeged, Hungary) and overseen by DSSI. BSEP transport was assessed in the presence of 0.5-30 µM MK-3207; MRP3 and MRP4 transport was assessed in the presence of 0.11-80 µM MK-3207. The upper limits of these ranges were determined by compound solubility in each assay buffer. NTCP transporter inhibition was assessed in NTCP-expressing HEK293 cells in the presence of 0.03 – 25 µM MK-3207.
IC50 values for MK-3207 were calculated for each of the transporters; these values were used as inputs into DILIsym. It was assumed that inhibition type for MK-3207 for MRP3 and MRP4 was mixed with α= 5; this is a typical value for bile acid transporter inhibitors in the experience of the DSS team.

HepG2 cells = assay: Seahorse cellular respiration assay (OCR); assay type: cell-based, human
Experimental: Identical parallel cultures were established to test for an effect on cytotoxicity via cellular ATP content. […]. Importantly, the 1-hour culture was conducted in the absence of serum (i.e., no serum protein binding) as is standard for the Seahorse Analyzer assay conditions. However, the 24-hour culture was too long for robust cell culture in the absence of serum. Serum was present up to 1 hour before the assay, when cell culture media was exchanged for the standard assay media. Three independent studies were conducted in duplicate.
To assess the potential mitochondrial liabilities of ubrogepant, cellular respiration assays using a Seahorse XFe96 Flux Analyzer were conducted by Cyprotex (Macclesfield, UK). HepG2 cells were incubated with ubrogepant at concentrations ranging from 0.1 – 125 μM for 1 or 24 hours and tested for an effect on cellular respiration as measured by the oxygen consumption rate (OCR). Three independent studies were conducted in duplicate. Importantly, the 1-hour culture was conducted in the absence of serum (i.e., no serum protein binding) as is standard for the Seahorse Analyzer assay conditions. However, the 24-hour culture was too long for robust cell culture in the absence of serum. Serum was present up to 1 hour before the assay, when cell culture media was exchanged for the standard assay media. The measured OCR was corrected for the relative amounts of viable cells that contributed to the measured OCR, removing the possible interpretation of OCR reductions as being due to cell loss.
To assess the potential mitochondrial liabilities of MK-3207, cellular respiration assays using a Seahorse XFe96 Flux Analyzer were conducted by Cyprotex (Macclesfield, UK). HepG2 cells were incubated with MK-3207 at concentrations ranging from 0.01 – 75 μM for 1 or 24 hours and tested for an effect on cellular respiration as measured by the OCR. Three independent studies were conducted in duplicate. Importantly, the 1-hour culture was conducted in the absence of serum (i.e., no serum protein binding) as is standard for the Seahorse Analyzer assay conditions. However, the 24-hour culture was too long for robust cell culture in the absence of serum. Serum was present up to 1 hour before the assay, when cell culture media was exchanged for the standard assay media. Intracellular MK-3207 concentrations were also assessed in identical duplicate HepG2 cultures. The measured OCR was corrected for the relative amounts of viable cells that contributed to the measured OCR, removing the possible interpretation of OCR reductions as being due to cell loss; the process for this was the same as that described above for ubrogepant.

[1] = HepG2, 1-hour incubation, no serum

SMILES | inhibition of MRP4-mediated probe substrate transport (MRP4) | effect on oxygen consumption rate (OCR) (HepG2 cells; [1]) | effect on oxygen consumption rate (OCR) (HepG2 cells; HepG2, 24-hour incubation) | IC50 (MRP4; curve fitting assuming maximum inhibition at higher concentrations is 100%, read-out: MRP4 estimated lowest possible IC50) [µM] | inhibition at 20 µM (MRP4; human, membrane vesicles with MRP4 (vesicular transport assay), read-out: maximum inhibition at the highest concentration tested, MRP4) [%] | inhibition at 70 µM (MRP4; human, membrane vesicles with MRP4 (vesicular transport assay), 70 µM (solubility limit), read-out: maximum inhibition at the highest concentration tested, MRP4) [%]
O=C(CN1C(=O)C2(CCCC2)NC[C@H]1c1cc(F)cc(F)c1)Nc1ccc2c(c1)C[C@@]1(C2)C(=O)Nc2ncccc21 [MK-3207] | No inhibition was observed | mildly inhibit cellular respiration | mildly inhibit cellular respiration |  |  | 
O=C(N[C@@H]1CC[C@@H](c2cccc(F)c2F)CN(CC(F)(F)F)C1=O)N1CCC(n2c(=O)[nH]c3ncccc32)CC1 [Telcagepant] | inhibited | inhibit the HepG2 OCR in a dose-dependent manner | A similar OCR response | ≥ 16.9 | < 50 | 
C[C@@H]1[C@H](c2ccccc2)C[C@H](NC(=O)c2cnc3c(c2)C[C@@]2(C3)C(=O)Nc3ncccc32)C(=O)N1CC(F)(F)F [Ubrogepant] | did not inhibit MRP4 | not after a 1-hour incubation | inhibit the HepG2 OCR in a dose-dependent manner |  |  | < 50
